How the values were obtained:
Experiment in all cases: relative viability (nuclei count vs DMSO), 5 days (fraction); higher = more cells survive
Gemcitabine + Tozasertib = compound: Nc1ccn([C@@H]2O[C@H](CO)[C@@H](O)C2(F)F)c(=O)n1 [Gemcitabine] + Cc1cc(Nc2cc(N3CCN(C)CC3)nc(Sc3ccc(NC(=O)C4CC4)cc3)n2)n[nH]1 [Tozasertib] (partner 0.1 µM)
Summary of the method: (§1)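 Medians of duplicate plates are given as relative viability. That measure is the nuclei count in treated wells divided by the count in vehicle wells. Counts were taken on 4× images of lung cancer cell lines in 1536-well plates, 5 days after pin-tool dosing the day after seeding with one drug alone or a fixed anchor-drug dose plus five library-drug doses (not always all listed) in √10 steps.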

Gemcitabine + Foretinib = compound: Nc1ccn([C@@H]2O[C@H](CO)[C@@H](O)C2(F)F)c(=O)n1 [Gemcitabine] + COc1cc2c(Oc3ccc(NC(=O)C4(C(=O)Nc5ccc(F)cc5)CC4)cc3F)ccnc2cc1OCCCN1CCOCC1 [Foretinib] (partner 0.25 µM)
Summary of the method: as §1

Gemcitabine + AZD7762 = compound: Nc1ccn([C@@H]2O[C@H](CO)[C@@H](O)C2(F)F)c(=O)n1 [Gemcitabine] + NC(=O)Nc1cc(-c2cccc(F)c2)sc1C(=O)N[C@H]1CCCNC1 [AZD7762] (partner 0.2 µM)
Summary of the method: as §1

Gemcitabine + Luminespib = compound: Nc1ccn([C@@H]2O[C@H](CO)[C@@H](O)C2(F)F)c(=O)n1 [Gemcitabine] + CCNC(=O)c1noc(-c2cc(C(C)C)c(O)cc2O)c1-c1ccc(CN2CCOCC2)cc1 [Luminespib] (partner 0.01 µM)
Summary of the method: as §1

Cell Line	relative viability (Gemcitabine + Tozasertib; first compound 0.001 µM)	relative viability (Gemcitabine + Tozasertib; first compound 0.003162 µM)	relative viability (Gemcitabine + Tozasertib; first compound 0.01 µM)	relative viability (Gemcitabine + Tozasertib; first compound 0.03162 µM)	relative viability (Gemcitabine + Tozasertib; first compound 0.1 µM)	relative viability (Gemcitabine + Foretinib; first compound 0.001 µM)	relative viability (Gemcitabine + Foretinib; first compound 0.003162 µM)	relative viability (Gemcitabine + Foretinib; first compound 0.01 µM)	relative viability (Gemcitabine + Foretinib; first compound 0.03162 µM)	relative viability (Gemcitabine + Foretinib; first compound 0.1 µM)	relative viability (Gemcitabine + AZD7762; first compound 0.001 µM)	relative viability (Gemcitabine + AZD7762; first compound 0.003162 µM)	relative viability (Gemcitabine + AZD7762; first compound 0.01 µM)	relative viability (Gemcitabine + AZD7762; first compound 0.03162 µM)	relative viability (Gemcitabine + AZD7762; first compound 0.1 µM)	relative viability (Gemcitabine + Luminespib; first compound 0.001 µM)	relative viability (Gemcitabine + Luminespib; first compound 0.003162 µM)	relative viability (Gemcitabine + Luminespib; first compound 0.01 µM)	relative viability (Gemcitabine + Luminespib; first compound 0.03162 µM)	relative viability (Gemcitabine + Luminespib; first compound 0.1 µM)
NCI-H1793	0.421	0.507	0.202	0.133	0.12	0.71	0.652	0.437	0.141	0.136	0.778	0.211	0.0841	0.161	0.0995	0.17	0.179	0.15	0.125	0.137
NCI-H1915	0.461	0.462	0.397	0.317	0.193	1.1	1.1	1.04	0.908	0.468	0.768	0.662	0.656	0.127	0.0991	0.826	0.759	0.693	0.669	0.356
NCI-H1944	0.253	0.266	0.251	0.188	0.105	0.891	0.992	0.847	0.345	0.199	0.518	0.36	0.0907	0.109	0.086	0.73	0.764	0.758	0.458	0.183
NCI-H1975	0.892	0.561	0.256	0.132	0.0954	1.03	0.962	0.555	0.156	0.138	0.699	0.353	0.19	0.247	0.204	0.173	0.158	0.154	0.182	0.13
NCI-H1993	0.54	0.633	0.619	0.494	0.531	0.561	0.833	0.61	0.63	0.588	0.74	0.483	0.398	0.439	0.346	0.61	0.85	0.579	0.508	0.45
NCI-H2085	0.729	0.858	0.731	0.562	0.443	0.897	0.889	0.598	0.431	0.241	0.949	0.847	0.613	0.337	0.271	0.435	0.477	0.369	0.298	0.263
NCI-H2087	0.31	0.204	0.139	0.0946	0.0735	1.14	0.708	0.245	0.164	0.111	1.1	0.145	0.144	0.111	0.104	0.178	0.159	0.14	0.147	0.138
NCI-H2126	0.866	0.802	0.756	0.471	0.245	1.15	1.17	1.15	0.674	0.324	0.995	1.03	0.891	0.265	0.205	0.975	0.828	0.773	0.414	0.257

— the supplement of paper PMC10307832
